This is an account of results in patent publication US9545447B2, “Polymer-drug systems” (THE TEXAS A&M UNIVERSITY SYSTEM, priority 2013, dated 2017).

Structures are written as SMILES. Read-outs that look alike come from different tables or passages of the source.

In general, IC50 refers to the concentration that gives 50% inhibition.

Data set [1] is described as follows: Saturate concentration of PTX in PBS buffer by UV. The data set is classed as physicochemical. The procedure:
The saturate concentration is around 1.7 ug/mL. PTX concentrations as low as 6.25 ng/mL were detected.

Data set [2] relates to KB cells, a human nasal pharyngeal cancer cell line. The experiment in a line: Cell viability (WST-1), KB cells. In kind it is cell-based. To be noted: Table 1, 72 h, PTX as free PTX. The protocol: Polymer paclitaxel and free paclitaxel were tested in KB cells, a human nasal pharyngeal cancer cell line and A549 cells, a human lung carcinoma cell line. KB and A549 cells (ATCC, Manassas, Va.) were maintained in monolayer cultures in folate free RPMI (Life Technologies, Carlsbad, Calif.) and F-12K media (Mediatech, Manassas, Va.) respectively, supplemented with 10% fetal bovine serum and penicillin/streptomycin antibiotics. For screening purposes 2,500 cells in 100 μL of complete cell culture media were plated in a 96 well plate (Corning, Lowell, Mass.) in triplicates and were then incubated for 24 h in a humidified CO2 cell culture incubator maintained at 37° C. Serial dilutions of polymer-paclitaxel conjugates and paclitaxel were prepared in PBS and added to cells in a volume of 10 μL. The cells were either incubated for a short period of 2 h or for longer continuous incubation of 72 h. After 2 h incubation, the media was replaced with 110 μL of fresh complete RPMI. Cell viability was assessed by using a colorimetric WST-1 cell proliferation kit (Roche, Indianapolis, Ind.) and following manufacturer's instructions. Cell viability was calculated as a percentage of the control cells treated with no drugs. […]
Background: Formazan colour is commonly taken as a measure of viable cells.

For data set [3], the system named is Human ovarian adenocarcinoma cells (OVCAR-3). The experiment in a line: Cytotoxicity assay (MTS), OVCAR-3. The data set is classed as cell-based. The protocol:
(§1) Human ovarian adenocarcinoma cells (OVCAR-3) (5×10^3 cells/well) and RAW 264.7 mouse macrophages (2×10^4 cells/well) were plated in 96-well plate in RPMI-1640 medium and Dulbecco's Modified Eagle's Medium (DMEM) (20% and 10% fetal bovine serum, for the OVCAR-3 and RAW 264.7, respectively and 1% penicillin/streptomycin). […] The paclitaxel conjugate was prepared as described previously, and the Taxol®-mimicking formulation was prepared in similar composition to Taxol® (i.e. Cremophor-EL and ethanol, 1:1 v/v). For each well, 20 μL of every formulation was added to 100 μL of the medium. The cells were incubated with the formulations for 72 h and washed once with phosphate-buffered saline (PBS) and 100 μL of the complete medium was added to the cells. 20 μL of the MTS combined reagent was added to each well (Cell Titer 96® Aqueous Non-Radioactive Cell Proliferation Assay, Promega Co., Madison, Wis.). […] Absorbance was measured at 490 nm using SpectraMax M5 (Molecular Devices Co., Sunnyvale, Calif.). The cell viability was calculated based on the relative absorbance to the control untreated cells. The IC50 values were calculated using GraphPad Prism four-parameter fit, considering the 0% and 100% viabilities correspond to the medium control (no cells) and cells-treated with PBS, respectively.

Data set [4] deals with RAW 264.7 mouse macrophages. The experiment in a line: Cytotoxicity assay (MTS), RAW 264.7. The data set is classed as cell-based. The protocol: as §1

Regarding `CC(=O)O[C@H]1C(=O)[C@@]2(C)[C@H]([C@H](OC(=O)c3ccccc3)[C@]3(O)C[C@H](OC(=O)[C@H](O)[C@@H](NC(=O)c4ccccc4)c4ccccc4)C(C)=C1C3(C)C)[C@]1(OC(C)=O)CO[C@@H]1C[C@@H]2O` [PTX, paclitaxel], the “saturate concentration of PTX” value in data set [1] was “around 1.7 ug/mL”. The IC50 in data set [2] was 0.0044 µM; in data set [3] (Table 1, 72 h, PTX as Taxol®-mimicking formulation (Cremophor-EL and ethanol, 1:1 v/v), read-out: IC50 (μM) OVCAR-3), 0.007 µM; in data set [3] (Table 2, 72 hours, PTX as Taxol-mimicking formulation, read-out: IC50 (μM)in OVCAR-3), 0.007 µM; in data set [4] (RAW264.7, Table 1, 72 h, PTX as Taxol®-mimicking formulation (Cremophor-EL and ethanol, 1:1 v/v), read-out: IC50 (μM) RAW 264.7) it was 0.044 µM; in data set [4] (RAW264.7, Table 2, 72 hours, PTX as Taxol-mimicking formulation, read-out: IC50 (μM) in RAW 264.7), 0.04 µM.
